{"source": "patent US20040038199A1", "about": "“Phenotyping assay and reagents therefor” (priority 2000, published 2004)", "format_in_all_cases": "cell-based, HIV-1", "key": {"[1]": {"tested_on": "Virus 2 (recombinant generated from plasma of Subject 2 by RVA)", "experiment": "MTT-reduction cell viability drug susceptibility assay, recombinant Virus 2 (RVA)", "conditions": "for pEC50 / fold resistance: Table 3A, Virus 2, method RVA; for fold resistance: relative to WT (HXB2)", "protocol": "(§1) As previously discussed, recombinant virus produced by the method of the present invention may be used in drug sensitivity assays. A suitable drug sensitivity assay is described in Pauwels et al. (1988) and is an MTT-reduction colorimetric cell viability assay. Cells infected with the virus are plated into the wells of tissue culture plates and incubated with the anti-viral drug to be tested. After incubation, MTT (3-(4,5-dimethylthiazol-2-yl)-2,5diphenyltetrazolium bromide) is added to the cell culture. Only live cells produce the blue formazan product after incubation with MTT. This product is detectable by reading the optical absorbance at 540-590 nm, so the absorbance reading gives a measure of the cells which have been protected from the virus by the anti-viral drug. Viral drug resistance results in a decrease in surviving cells and a decrease in absorbance at 540-590 nm.\n(§2) In this experiment, plasma from three HIV-1 infected subjects experiencing virological failure on PI-containing therapy regimens was used as the basis for the FPH to generate recombinant virus. […] Virus from Subject 2 had L10I, M46I, I50V and a Lp1′F mutation at the p1/p6 protease cleavage site, all of which are mutations typical of high level APV resistance.\n(§3) The LTR was added to the nested products by PMR prior to transfection. The PMR reactions successfully added the LTR sequences to the nested products (FIG. 9). The first round RT-PCR reactions were also used as templates to generate products for RVA by cotransfection with pHXBΔCSPRTC. Triplicate PCR products were cotransfected into MT4 cells with the linearised plasmid pHXBTOPO1, in the case of the PMR products, and with linearised pHXBΔCSPRTC in for the RVA products. Viral cytopathic effect was observed and titratable virus was harvested in the supernatants. No virus was isolated from virus 2 using FPH and only one of the triplicate cultures from virus 3 yielded infectious virus. All of the RVA cultures produced virus.\n(§4) In order to determine whether the extra sequences in the FPH recombinants contain determinants of susceptibility, the recombinant viruses were tested against several drugs. Drug susceptibility was determined by the 3-(4,5dimethylthiazol-2-yl)-2,5-diphenyltetrazolium bromide (MTT)-reduction calorimetric cell viability assay described previously (Pauwels et al. 1988; Robinson et al., 2000). Changes in susceptibility were defined as fold increase in IC50 relative to WT (HXB2). Nucleotide sequences were determined using ABI 3700 capillary sequencers and Big Dye terminators. […] Virus 1 also gave a 2.2-fold (Table 3A) or 4-fold (Table 3B) higher susceptibility to IDV and 2.9-fold (Table 3A) or 3.2-fold higher susceptibility to APV when generated by RVA."}, "[2]": {"tested_on": "Virus 1 (recombinant generated from plasma of Subject 1 by FPH or RVA)", "experiment": "MTT-reduction cell viability drug susceptibility assay, recombinant Virus 1 (FPH or RVA)", "conditions": "for pEC50 / fold resistance: Table 3A; for pEC50: read-out: Drug EC50; for fold resistance: relative to WT (HXB2)", "protocol": "as §1, §2, §3, §4"}, "[3]": {"tested_on": "Virus 3 (recombinant generated from plasma of Subject 3 by FPH or RVA)", "experiment": "MTT-reduction cell viability drug susceptibility assay, recombinant Virus 3 (FPH or RVA)", "conditions": "for pEC50 / fold resistance: Table 3A; for fold resistance: relative to WT (HXB2)", "protocol": "as §1, §2, §3, §4"}, "HXB2": {"tested_on": "HXB2", "experiment": "MTT-reduction cell viability drug susceptibility assay, wild type HXB2 (Table 3A)", "conditions": "for pEC50: HXB2 wild type; for fold resistance: HXB2 wild type (reference)", "protocol": "as §1, §4"}, "[4]": {"tested_on": "WT (HXB2) generated by FPH or RVA", "experiment": "MTT-reduction cell viability drug susceptibility assay, WT (Table 3B)", "conditions": "for pEC50: Human immunodeficiency virus 1, HXB2, Table 3B; for fold resistance: Table 3B", "protocol": "as §1, §4"}, "[5]": {"tested_on": "recombinant viruses generated by FPH or RVA", "experiment": "Comparison of drug susceptibility of FPH generated and RVA generated viruses", "conditions": "two separate experiments (tables 3A and B)", "protocol": "as §1\nIn order to determine whether the extra sequences in the FPH recombinants contain determinants of susceptibility, the recombinant viruses were tested against several drugs. Drug susceptibility was determined by the 3-(4,5dimethylthiazol-2-yl)-2,5-diphenyltetrazolium bromide (MTT)-reduction calorimetric cell viability assay described previously (Pauwels et al. 1988; Robinson et al., 2000). […] Nucleotide sequences were determined using ABI 3700 capillary sequencers and Big Dye terminators. […]"}, "[6]": {"tested_on": "Virus 5.1 (FPH), 5.2 (RVA)", "experiment": "MTT-reduction cell viability drug susceptibility assay, viruses 5.1 and 5.2 (Table 3B)", "conditions": "for pEC50: Human immunodeficiency virus 1, Table 3B; for fold resistance: Table 3B, relative to WT", "protocol": "as §1, §3, §4"}, "[7]": {"tested_on": "Virus 3.1, 3.2, 3.3 (recombinants by FPH or RVA)", "experiment": "MTT-reduction cell viability drug susceptibility assay, viruses 3.1-3.3 (Table 3B)", "conditions": "for fold resistance: Table 3B, relative to WT", "protocol": "as §1, §3, §4"}, "[8]": {"tested_on": "Virus 4.1, 4.2, 4.3 (recombinants by RVA)", "experiment": "MTT-reduction cell viability drug susceptibility assay, viruses 4.1-4.3 (Table 3B)", "conditions": "for pEC50: Human immunodeficiency virus 1, Table 3B; for fold resistance: Table 3B, relative to WT", "protocol": "as §1, §3, §4"}}, "note": "pEC50: −log10 of the molar value. Where two headings read alike, the source gives them in different places.", "data": [{"smiles": "CC(C)c1nc(CN(C)C(=O)N[C@H](C(=O)N[C@@H](Cc2ccccc2)C[C@H](O)[C@H](Cc2ccccc2)NC(=O)OCc2cncs2)C(C)C)cs1", "note": "[RTV]", "values": [{"measurement": "pEC50", "setting": "[1]", "value": 6.34}, {"measurement": "fold resistance", "setting": "[1]", "value": "(7.0) fold"}, {"measurement": "pEC50", "setting": "[2]; Virus 1, method FPH", "value": 6.69}, {"measurement": "fold resistance", "setting": "[2]; Virus 1, method FPH", "value": "(3.1) fold"}, {"measurement": "pEC50", "setting": "[2]; Virus 1, method RVA", "value": 7.04}, {"measurement": "fold resistance", "setting": "[2]; Virus 1, method RVA", "value": "(1.4) fold"}, {"measurement": "pEC50", "setting": "[3]; Virus 3, method FPH", "value": 5.75}, {"measurement": "fold resistance", "setting": "[3]; Virus 3, method FPH", "value": "(27) fold"}, {"measurement": "pEC50", "setting": "[3]; Virus 3, method RVA", "value": 5.85}, {"measurement": "fold resistance", "setting": "[3]; Virus 3, method RVA", "value": "(22) fold"}, {"measurement": "pEC50", "setting": "HXB2", "value": 7.19}, {"measurement": "fold resistance", "setting": "HXB2", "value": "(1.0) fold"}]}, {"smiles": "Cc1cn([C@H]2C[C@H](N=[N+]=[N-])[C@@H](CO)O2)c(=O)[nH]c1=O", "note": "[ZDV, zidovudine]", "values": [{"measurement": "resistance, fold higher than wild-type", "setting": "[1]; Virus 2 obtained via the RVA, Table 3B experiment", "value": "> 84", "unit": "fold"}, {"measurement": "fold higher susceptibility when generated by RVA than when generated by FPH", "setting": "[2]; virus 1, Table 3B experiment", "value": 4.8, "unit": "fold"}, {"measurement": "pEC50", "setting": "[4]; method FPH", "value": 7.55}, {"measurement": "pEC50", "setting": "[4]; method RVA", "value": 7.51}, {"measurement": "fold resistance", "setting": "[4]; method FPH (reference)", "value": "(1.0) fold"}, {"measurement": "fold resistance", "setting": "[4]; method RVA (reference)", "value": "(1.0) fold"}, {"measurement": "Susceptibility in FPH generated versus RVA generated viruses", "setting": "[5]", "value": "lower in the FPH generated than the RVA generated viruses"}, {"measurement": "pEC50", "setting": "[6]; Virus 5.1, method FPH", "value": 7.32}, {"measurement": "pEC50", "setting": "[6]; Virus 5.2, method RVA", "value": 7.78}, {"measurement": "fold resistance", "setting": "[6]; Virus 5.1, method FPH", "value": "(1.7) fold"}, {"measurement": "fold resistance", "setting": "[6]; Virus 5.2, method RVA", "value": "(−1.9) fold"}, {"measurement": "difference in susceptibility between the two techniques (RVA vs FPH)", "setting": "[3]; virus 3, Table 3B experiment", "value": 2.9, "unit": "fold"}, {"measurement": "pEC50", "setting": "[7]; Human immunodeficiency virus 1, Table 3B, Virus 3.1, method FPH, read-out: Drug EC50", "value": 7.12}, {"measurement": "pEC50", "setting": "[7]; Human immunodeficiency virus 1, Table 3B, Virus 3.2, method FPH, read-out: Drug EC50", "value": 7.19}, {"measurement": "pEC50", "setting": "[7]; Human immunodeficiency virus 1, Table 3B, Virus 3.3, method FPH, read-out: Drug EC50", "value": 7.45}, {"measurement": "pEC50", "setting": "[7]; Human immunodeficiency virus 1, read-out: Drug EC50, Table 3B, Virus 3.1, method RVA", "value": 7.91}, {"measurement": "fold resistance", "setting": "[7]; Virus 3.1, method FPH", "value": "(2.7) fold"}, {"measurement": "fold resistance", "setting": "[7]; Virus 3.1, method RVA", "value": "(−2.5) fold"}, {"measurement": "fold resistance", "setting": "[7]; Virus 3.2, method FPH", "value": "(2.3) fold"}, {"measurement": "fold resistance", "setting": "[7]; Virus 3.3, method FPH", "value": "(1.2) fold"}, {"measurement": "pEC50", "setting": "[8]; Virus 4.1, method RVA", "value": "< 5.30"}, {"measurement": "pEC50", "setting": "[8]; Virus 4.2, method RVA", "value": "< 5.30"}, {"measurement": "pEC50", "setting": "[8]; Virus 4.3, method RVA", "value": "< 5.30"}, {"measurement": "fold resistance", "setting": "[8]; Virus 4.1, method RVA", "value": "(>163) fold"}, {"measurement": "fold resistance", "setting": "[8]; Virus 4.2, method RVA", "value": "(>163) fold"}, {"measurement": "fold resistance", "setting": "[8]; Virus 4.3, method RVA", "value": "(>163) fold"}]}, {"smiles": "Cc1c(O)cccc1C(=O)N[C@@H](CSc1ccccc1)[C@H](O)CN1C[C@H]2CCCC[C@H]2C[C@H]1C(=O)NC(C)(C)C", "note": "[NFV]", "values": [{"measurement": "pEC50", "setting": "[1]", "value": 7.15}, {"measurement": "fold resistance", "setting": "[1]", "value": "(2.4) fold"}, {"measurement": "pEC50", "setting": "[2]; Virus 1, method FPH", "value": 7.15}, {"measurement": "fold resistance", "setting": "[2]; Virus 1, method FPH", "value": "(2.3) fold"}, {"measurement": "pEC50", "setting": "[2]; Virus 1, method RVA", "value": 7.57}, {"measurement": "fold resistance", "setting": "[2]; Virus 1, method RVA", "value": "(0.90) fold"}, {"measurement": "pEC50", "setting": "[3]; Virus 3, method FPH", "value": 6.23}, {"measurement": "fold resistance", "setting": "[3]; Virus 3, method FPH", "value": "(20) fold"}, {"measurement": "pEC50", "setting": "[3]; Virus 3, method RVA", "value": 6.41}, {"measurement": "fold resistance", "setting": "[3]; Virus 3, method RVA", "value": "(13) fold"}, {"measurement": "pEC50", "setting": "HXB2", "value": 7.52}, {"measurement": "fold resistance", "setting": "HXB2", "value": "(1.0) fold"}]}]}
